Measurements: ChEMBL document CHEMBL1150443, “Synthesis and ion-binding properties of an immobilized bis-cysteine peptide” (Bioorg Med Chem Lett, 1992)
Calls of active or inactive are those of the source. No cut-off for these calls is given here.

Key:
[1] = Binding constant of the ion pair ( lithium picrate salt) to the peptide-matrix was calculated from the spectrophotometric determination of the free […] picrate salt after equilibration with the immobilized peptide in trifluoroethanol; NA=No affinity
[2] = Binding constant of the ion pair ( lithium picrate salt) to the peptide-matrix was calculated from the spectrophotometric determination of the free Li+ picrate salt after equilibration with the immobilized peptide in trifluoroethanol
[3] = Binding constant of the ion pair ( lithium picrate salt) to the peptide-matrix was calculated from the spectrophotometric determination of the free Na+ picrate salt after equilibration with the immobilized peptide in trifluoroethanol
[4] = Binding constant of the ion pair ( potassium picrate salt) to the peptide-matrix was calculated from the spectrophotometric determination of the free K+ picrate salt after equilibration with the immobilized peptide in trifluoroethanol; NA=No affinity
[5] = Binding constant of the ion pair ( lithium picrate salt) to the peptide-matrix was calculated from the spectrophotometric determination of the free Li+ picrate salt after equilibration with the immobilized peptide in trifluoroethanol; NA=No affinity
[6] = Binding constant of the ion pair ( sodium picrate salt) to the peptide-matrix was calculated from the spectrophotometric determination of the free Na+ picrate salt after equilibration with the immobilized peptide in trifluoroethanol

Structure (SMILES) | Activity [1] | Log K [2] | Log K [3] | Activity [4] | Activity [5] | KNa [6]
CC(=O)N[C@@H]1CSSC[C@@H](NC(C)=O)C(=O)N2CCC[C@@H]2C(=O)N[C@H](C(C)C)C(=O)N[C@H](C(N)=O)CSSC[C@@H](C(N)=O)NC(=O)[C@@H](C(C)C)NC(=O)[C@H]2CCCN2C1=O | inactive | 2.6 | 2.11 |  |  | 
CC(=O)N[C@@H]1CSSC[C@@H](NC(C)=O)C(=O)N2CCC[C@@H]2C(=O)N[C@H](C(C)C)C(=O)N[C@H](C(=O)O)CSSC[C@@H](C(N)=O)NC(=O)[C@@H](C(C)C)NC(=O)[C@H]2CCCN2C1=O |  |  |  | inactive | inactive | 5200 M⁻¹
